Measured values taken from patent publication US11130974B2, “Hydroxylated fatty acid homopolymer and production method thereof” (KYOTO UNIVERSITY, priority 2017, dated 2021).

Biological target: T1, hydroxylated fatty acid dehydrogenase (CLA-DH) (Lactiplantibacillus plantarum, UniProt P0DX40)
T1 construct: made in house; host or cells: Escherichia coli (cell-free extract, not purified)
T1 sequence (P0DX40 1-286): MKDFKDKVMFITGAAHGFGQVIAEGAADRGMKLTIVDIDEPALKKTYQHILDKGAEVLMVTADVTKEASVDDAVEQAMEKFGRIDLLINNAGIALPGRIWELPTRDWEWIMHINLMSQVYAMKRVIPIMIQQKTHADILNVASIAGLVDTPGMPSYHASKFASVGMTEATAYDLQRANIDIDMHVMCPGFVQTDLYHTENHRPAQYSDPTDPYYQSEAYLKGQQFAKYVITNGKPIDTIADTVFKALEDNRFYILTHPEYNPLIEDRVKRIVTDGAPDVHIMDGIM
Assay: Comparison of oxidation stability: oxidation reaction with NAD+ in the presence of hydroxylated fatty acid dehydrogenase (CLA-DH), NADH measured at 340 nm
Format: biochemical
Settings: 0.143 mg/mL substrate (0.48 mM HYA), 4 mM NAD+, CLA-DH-expressing Escherichia coli cell-free extract, 37° C., about 6 min
Method: The oxidation stability was compared between the reaction extract (homopolymer mixture) obtained in Example 1 and HYA. The oxidation reaction was performed using NAD^+ as an electron receptor in the presence of hydroxylated fatty acid dehydrogenase (CLA-DH) (S. Kishino et al., Polyunsaturated fatty acid saturation by gut lactic acid bacteria affecting host lipid composition. Proc. Natl. Acad. Sci. USA, 110(44), 17808-17813, 2013).
The reaction mixture (3 mL) contained CLA-DH-expressing Escherichia coli cell-free extract (150 μL, derived from 50 mg Escherichia coli wet cells) as hydroxylated fatty acid dehydrogenase, 4 mM NAD^+, 150 μL of ethanol, and 0.48 mM (0.143 mg/mL) HYA or equal amount (0.143 mg/mL) of a homopolymer mixture as a substrate, and the reaction was started by the addition of hydroxylated fatty acid dehydrogenase and performed at 37° C. for about 6 min. […] The progress of oxidation was quantified by measuring the change in absorbance at 340 nm of NADH amount produced by the oxidation of the substrate (the molecular absorption coefficient of NADH was 6.3×10^3 L·mol^−1 cm^−1).

CCCCC/C=C\CC(O)CCCCCCCCC(=O)O (stereo not drawn) [HYA, 10-hydroxy-cis-12-octadecenoic acid]
oxidation rate: 2.9 µM/min
